Assay results reported in patent US6559133B2, “Use of flavone 8-acetic acid in vascular and cardiovascular interventions and acute coronary syndromes” (priority 2000, dated 2003).

Columns and labels:
[1] = system: porcine common carotid arteries; experiment: Vasoconstriction immediately distal to the dilatation site, from carotid angiograms; format: in vivo, pig; conditions: mean±SEM; p<0.001 vs placebo
Method: An 8 mm×3 cm polyethylene angioplasty catheter (Blue Max, Medi-tech, Watertown, Mass.) was advanced under fluoroscopic guidance to the left and then to the right common carotid arteries for arterial dilatation. Angioplasty was performed 30 minutes after starting treatment, between the first and third cervical vertebrae, using a standardized procedure (5 inflations of 30 seconds duration at 7 atmospheres, with 60 seconds between inflations). Carotid angiography was performed by injecting 6 ml of ionic contrast material (Renografin 76, Squibb, Princeton, N.J.) just prior to carotid dilatation, using a catheter (8 F) with a metal ring of known dimension (Cordis Corporation, Miami, Fla.). Spot films were also taken during balloon dilatation. […]
The severity of localized vasoconstriction was determined immediately distal to the dilatation site from angiograms of the common carotid arteries obtained before and after the dilatation procedure. Computer-assisted planimetry was used to measure the mean maximal narrowing in lumen diameter before and after the procedure, expressed as a percentage of the respective arterial dimension before dilatation (J. Y. T. Lam et al., “Is Vasospasm Related to Platelet Deposition? Relationship in a Porcine Preparation of Arterial Injury in Vivo,” Circulation 75: 243-248 (1987)).

[2] = Laboratory tests: aPTT and ear bleeding time; format: in vivo, pig
Method: The left femoral vein and artery and the right femoral vein were dissected. A 9 F sheath was placed in the left femoral artery, and 14 gauge angiocaths were inserted in the left and right femoral veins. […] All the lines for blood sampling were continuously flushed with 0.9% saline.
(§1) All blood samples were collected with the 2-syringe technique (0.13 M trisodium citrate as anticoagulant; anticoagulant:blood=1:10). […] Platelet count, hematocrit, aPTT, and fibrinogen were determined using standard laboratory methods (Mayo Clinic, Clinical Laboratories). […] Assays were performed as a single batch. The method of determination of FAA in plasma was that of L. Malspeis (personal communication). Briefly, plasma (0.25-0.50 ml) was diluted to 1 ml with 0.5 ml of 0.5 M sodium acetate (pH 3.0) and normal saline. After addition of diethyl ether (4 ml) tubes were shaken on a mechanical shaker for 15 minutes. Following low speed centrifugation, the ether phase was evaporated to dryness under a stream of nitrogen and the residue dissolved in mobile solvent prior to HPLC analysis. Samples were analyzed by reversed-phase HPLC on an IBM C18 (10 micron) column with a mobile solvent of methanol/water mixture. Detection was by UV absorbance at 254 nm. Standard curves were prepared by adding known amounts of FAA to blood blank plasma and analyzing as described above.

[3] = system: solid tumors in the mouse; conditions: mice; cited from earlier work
[4] = system: deeply injured porcine carotid artery; experiment: Platelet and fibrin(ogen) deposition and mural thrombus after deep arterial injury by balloon angioplasty; format: in vivo, pig
Method: (§2) Twenty normal pigs of Babcock 4-way cross stock (a mixture of Landrace, Yorkshire, Hampshire, and Durock breeds) approximately 4 months old with a mean weight of 40±1 kg (approximately 1 m^2 body surface area) (P. L. Altman & D. S. Dittmer, “Metabolism” in Biological Handbooks (Federation of American Societies for Experimental Biology, Bethesda, Md., 1968), pp. 346-348), were obtained from local farmers. […] Loading dose and maintenance infusion were calculated based on preliminary pharmacokinetic experiments in pigs.
The model of deep arterial injury in the porcine carotid artery has been described in detail previously (P. M. Steele et al., “Balloon Angioplasty: Natural History of the Pathophysiologic Response to Injury in a Pig Model,” Cir. Res. 57: 105-112 (1985); M. Heras et al., “Hirudin, Heparin, and Placebo During Deep Arterial Injury in the Pig. The in Vivo Role of Thrombin in Platelet-Mediated Thrombosis,” Circulation 82: 1476-1484 (1990); J. Y. T. Lam et al., “Is Vasospasm Related to Platelet Deposition? Relationship in a Porcine Preparation of Arterial Injury in Vivo,” Circulation 75: 243-248 (1987)). Autologous platelets were labeled with […] of ^111Indium-tropolone and reinjected together with […] of ^125Iodine-labeled porcine fibrinogen on the day prior to the procedure M. Heras et al., “Hirudin, Heparin, and Placebo During Deep Arterial Injury in the Pig. The in Vivo Role of Thrombin in Platelet-Mediated Thrombosis,” Circulation 82: 1476-1484 (1990); J. Y. T. Lam et al., “Is Vasospasm Related to Platelet Deposition? Relationship in a Porcine Preparation of Arterial Injury in Vivo,” Circulation 75: 243-248 (1987); J. Mruk et al., “Does Anti-Thrombotic Therapy Influence Residual Thrombus After Thrombolysis of Platelet-Rich Thrombus?,” Circulation 93: 792-799 (1996)). On the day of surgery, the pigs were sedated with 1 g intramuscular ketamine (Ketaset, Bristol Laboratories, Syracuse, N.Y.), intubated and mechanically ventilated with room air (Harvard respirator, Harvard Apparatus, South Natick, Mass.). Anesthesia was maintained with a continuous infusion of etomidate (Abbott Laboratories, North Chicago, Ill.) 40 mg/l, fentanyl (Elkins-Sinn, Inc., Cherry Hill, N.J.) 10 mg/l, and ketamine 1,000 mg/l, at about 5 ml/minute. The ECG and intra-arterial pressure were continuously monitored throughout the procedure.
The left femoral vein and artery and the right femoral vein were dissected. A 9 F sheath was placed in the left femoral artery, and 14 gauge angiocaths were inserted in the left and right femoral veins. […] All the lines for blood sampling were continuously flushed with 0.9% saline. […]

[5] = FAA pharmacokinetics and plasma levels in pigs (HPLC); format: in vivo, pig
Method: as §2, §1
The intravenous bolus and continuous infusion doses to maintain a plasma concentration of 500 μg/ml calculated from these values, were 5.5 gm/m^2 and 140 mg/min/m^2, respectively.

[6] = system: human platelet-rich plasma; conditions: cited from earlier work

- Bleeding time after FAA in 4 of the animals ([2]; 4 of 5 animals, 210 seconds = 2 standard deviations above the mean laboratory value): more than 210 seconds
- Bleeding time after FAA ([2]; 5 animals, 30 minutes after starting infusion, before FAA 157±29 seconds): 522 ± 123 s
- concentration at 30 min ([5]; Babcock 4-way cross (Landrace, Yorkshire, Hampshire, Durock), pig, plasma, intravenous, 30 minutes after starting bolus 5.5 g/m^2 plus infusion 0.14 g/m^2/minute): 515 ± 23 µg/mL
- Plasma level of FAA at the end of the procedure ([5]; bolus 5.5 g/m^2 plus infusion 0.14 g/m^2/minute): 575 ± 36 µg/mL
- half-life ([5]; pig, plasma, two animals, intravenous bolus 1 gm/m^2, one compartment open model): 27.9 min
- Plasma clearance ([5]; two animals, intravenous bolus 1 gm/m^2, one compartment open model): 279 ml/min/m^2
SMILES: O=C(O)Cc1cccc2c(=O)cc(-c3ccccc3)oc12 [FAA, flavone-8-acetic acid]
- Vasoconstriction immediately distal to the area of dilatation [1]: 15±3%
- Implantation of solid tumors [3]: inhibits implantation of solid tumors in mice
- Fibrin(ogen) deposition ([4]; deeply injured segments, mean±SEM, p=0.08 vs placebo): 40±8 ×10^12 molecules/cm^2
- Incidence of very small mural thrombi, treated pigs ([4]; per animal, p=0.005, large thrombi in all placebo pigs): 40%
- Incidence of very small thrombi, deeply injured segments ([4]; per deeply injured segment, placebo 85% large thrombi): 30%
- Platelet deposition in deeply injured segments ([4]; pigs, FAA bolus 5.5 g/m^2 then infusion 0.14 g/m^2/minute, mean±SEM, p=0.001 vs placebo): 13±3 ×10^6/cm^2
- Ristocetin-induced platelet aggregation (vWF-GP Ibα-dependent) ([6]; FAA administered to patients with cancer): inhibited
- Aggregation induced by ADP, collagen, arachidonic acid and adrenalin ([6]; ex vivo and in vitro, human platelet-rich plasma): not inhibited
- Plasma ristocetin cofactor activity ([6]; human): unchanged
